Data: paper PMC4624405 (Chemistry & biology, 2015)
Like-named read-outs stand apart in the source and are kept apart here.

Key:
[1] = target: T1, sterol C24-methyltransferase (TbSMT) (Trypanosoma brucei, UniProt Q4FKJ2); format: biochemical
T1 sequence (Q4FKJ2 1-359): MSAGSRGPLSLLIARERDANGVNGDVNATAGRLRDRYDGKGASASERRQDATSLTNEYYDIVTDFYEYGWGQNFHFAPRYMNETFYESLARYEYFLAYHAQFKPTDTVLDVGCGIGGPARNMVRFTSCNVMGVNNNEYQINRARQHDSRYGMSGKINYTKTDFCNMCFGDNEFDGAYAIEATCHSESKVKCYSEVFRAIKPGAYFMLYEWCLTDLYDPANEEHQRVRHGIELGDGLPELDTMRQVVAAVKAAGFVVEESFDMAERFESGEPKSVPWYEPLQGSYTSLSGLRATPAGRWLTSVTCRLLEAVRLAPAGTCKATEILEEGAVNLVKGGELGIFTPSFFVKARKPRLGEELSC

[2] = target: T1, sterol C24-methyltransferase (TbSMT); experiment: recombinant enzyme activity assay, Lineweaver-Burk inhibition; format: biochemical

| SMILES | Ki [1] | Ki [2] |
| --- | --- | --- |
| CC(=CCC[C@@H](C)[C@H]1CC[C@H]2C3=CC=C4C[C@@H](O)CC[C@]4(C)[C@H]3CC[C@]12C)CF [26FCT, 26-fluorocholesta-5,7,24-trienol] | 75 µM |  |
| CC(=CCC[C@@H](C)[C@H]1CC[C@@]2(C)C3=C(CC[C@]12C)[C@@]1(C)CC[C@H](O)C(C)(C)[C@@H]1CC3)CF [26FL, 26-fluorolanosterol] |  | 85 µM |
